Experimental data published in the supplement of paper PMC10307832.

Assays:
Experiment in all cases: relative viability (nuclei count vs DMSO), 5 days (fraction); higher = more cells survive
AZ628 + Alpelisib = compound: CC1=C(C=C(C=C1)NC(=O)C2=CC(=CC=C2)C(C)(C)C#N)NC3=CC4=C(C=C3)N=CN(C4=O)C [AZ628] + Cc1nc(NC(=O)N2CCC[C@H]2C(N)=O)sc1-c1ccnc(C(C)(C)C(F)(F)F)c1 [Alpelisib] (partner 2 µM)
Procedure, shortened: (§1)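 Relative viability divides the nuclei count in treated wells by that in vehicle wells. Lung cancer cell lines were seeded in 1536-well plates, dosed by pin tool the next day, and fixed and stained after 5 days in one step with final 0.05% Triton X-100, 1% formaldehyde and 1 ug/ml Hoechst. Dosing was a single drug or a fixed anchor-drug dose plus five library-drug doses (not always all listed) in √10 steps, and values are medians of duplicate plates imaged at 4×.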

AZ628 + Decitabine = compound: CC1=C(C=C(C=C1)NC(=O)C2=CC(=CC=C2)C(C)(C)C#N)NC3=CC4=C(C=C3)N=CN(C4=O)C [AZ628] + Nc1ncn([C@H]2C[C@H](O)[C@@H](CO)O2)c(=O)n1 [Decitabine] (partner 2 µM)
Procedure, shortened: as §1

[1] = compound: C[As](C)SC[C@H](NC(=O)CC[C@H](N)C(=O)O)C(=O)NCC(=O)O [Darinaparsin] + CC(=O)c1c(C)c2cnc(Nc3ccc(N4CCNCC4)cn3)nc2n(C2CCCC2)c1=O [Palbociclib] (partner 0.5 µM)
Procedure, shortened: as §1

[2] = compound: C[As](C)SC[C@H](NC(=O)CC[C@H](N)C(=O)O)C(=O)NCC(=O)O [Darinaparsin] + O=C(CCCCCCC(=O)Nc1ccccc1)NO [Vorinostat] (partner 1 µM)
Procedure, shortened: as §1

Cell Line | relative viability (AZ628 + Alpelisib; first compound 0.08 µM) | relative viability (AZ628 + Alpelisib; first compound 0.253 µM) | relative viability (AZ628 + Alpelisib; first compound 0.8 µM) | relative viability (AZ628 + Alpelisib; first compound 2.53 µM) | relative viability (AZ628 + Alpelisib; first compound 8 µM) | relative viability (AZ628 + Decitabine; first compound 0.08 µM) | relative viability (AZ628 + Decitabine; first compound 0.253 µM) | relative viability (AZ628 + Decitabine; first compound 0.8 µM) | relative viability (AZ628 + Decitabine; first compound 2.53 µM) | relative viability (AZ628 + Decitabine; first compound 8 µM) | relative viability ([1]; first compound 0.08 µM) | relative viability ([1]; first compound 0.8 µM) | relative viability ([1]; first compound 2.53 µM) | relative viability ([1]; first compound 8 µM) | relative viability ([2]; first compound 0.08 µM) | relative viability ([2]; first compound 0.8 µM) | relative viability ([2]; first compound 2.53 µM) | relative viability ([2]; first compound 8 µM)
HCC-827 | 0.903 | 0.9 | 0.889 | 0.984 | 0.555 | 0.33 | 0.32 | 0.348 | 0.402 | 0.313 | 0.514 | 0.519 | 0.414 | 0.477 | 0.874 | 0.818 | 0.775 | 0.963
HOP-62 | 1.02 | 1.11 | 0.947 | 1.24 | 0.451 | 0.235 | 0.265 | 0.236 | 0.249 | 0.214 | 0.541 | 0.411 | 0.385 | 0.593 | 0.765 | 0.654 | 0.522 | 0.819
IA-LM | 0.805 | 0.731 | 0.552 | 0.586 | 0.207 | – | – | – | – | – | – | – | – | – | 0.947 | 1.07 | 1.2 | 0.89
LC-2-ad | 0.968 | 0.865 | 0.982 | 0.851 | 0.466 | 0.821 | 0.782 | 0.816 | 0.732 | 0.453 | 0.554 | 0.523 | 0.383 | 0.602 | 0.805 | 0.762 | 0.657 | 0.829
LCLC-103H | 0.924 | 1.07 | 0.981 | 0.986 | 0.919 | 0.71 | 0.728 | 0.726 | 0.641 | 0.601 | 0.49 | 0.427 | 0.49 | 0.533 | 0.796 | 0.713 | 0.732 | 0.885
LK-2 | 1.23 | 1.27 | 0.834 | 1.08 | 0.296 | 0.308 | 0.271 | 0.326 | 0.338 | 0.184 | 1 | – | 0.815 | 0.989 | 0.283 | 0.268 | 0.256 | 0.263
LOU-NH91 | 0.714 | 0.747 | 0.691 | 0.687 | 0.577 | 0.814 | 0.811 | 0.801 | 0.816 | 0.749 | 0.576 | 0.512 | 0.562 | 0.641 | 0.937 | 0.885 | 0.86 | 0.969
LU99A | 0.456 | 0.478 | 0.628 | 0.554 | 0.216 | 0.825 | 0.669 | 0.806 | 0.447 | 0.386 | 0.425 | 0.438 | 0.354 | 0.451 | 0.477 | 0.47 | 0.524 | 0.455
LXF-289 | 1.01 | 1.01 | 0.963 | 0.961 | 0.626 | 0.403 | 0.378 | 0.394 | 0.371 | 0.372 | 0.638 | 0.611 | 0.488 | 0.562 | 0.775 | 0.788 | 0.828 | 0.779
NCI-H23 | 0.745 | 0.622 | 0.305 | 0.501 | 0.377 | 0.298 | 0.315 | 0.232 | 0.291 | 0.269 | 0.549 | 0.52 | 0.51 | 0.479 | 0.62 | 0.485 | 0.663 | 0.716
NCI-H322M | 0.925 | 0.719 | 0.824 | 0.747 | 0.655 | 0.659 | 0.716 | 0.696 | 0.681 | 0.688 | 0.478 | 0.456 | 0.487 | 0.442 | 1.08 | 0.865 | 0.768 | 0.899
NCI-H358 | 0.745 | 0.639 | 0.668 | 0.571 | 0.389 | 0.233 | 0.192 | 0.184 | 0.195 | 0.158 | 0.141 | 0.128 | 0.127 | 0.139 | 0.744 | 0.636 | 0.594 | 0.745
NCI-H522 | – | – | – | – | – | 0.62 | 0.66 | 0.686 | 0.78 | 0.522 | 1.11 | 1.01 | 0.957 | 1.03 | 0.85 | 0.909 | 0.798 | 0.905
NCI-H596 | 0.504 | 0.553 | 0.567 | 0.498 | 0.422 | 1.02 | 1.12 | 1.13 | 1.1 | 0.933 | – | – | – | – | 0.543 | 0.632 | 0.576 | 0.543
NCI-H1299 | 1.01 | 1.22 | 1.22 | 1.24 | 0.763 | – | – | – | – | – | – | – | – | – | – | – | – | –
NCI-H1563 | 0.982 | 0.874 | 0.858 | 0.967 | 0.893 | – | – | – | – | – | – | – | – | – | – | – | – | –
NCI-H1648 | – | – | – | – | – | 0.72 | 0.563 | 0.453 | 0.453 | 0.489 | – | 0.242 | – | 0.243 | – | 0.301 | – | 0.56
NCI-H1650 | – | – | – | – | – | 0.586 | 0.485 | 0.429 | 0.382 | 0.615 | 0.377 | 0.321 | 0.325 | 0.375 | 0.64 | 0.499 | 0.628 | 0.683
NCI-H1703 | 0.216 | 0.2 | 0.215 | 0.213 | 0.181 | – | – | – | – | – | – | – | – | – | – | – | – | –
NCI-H1792 | 0.788 | 0.679 | 0.522 | 0.607 | 0.425 | 0.605 | 0.532 | 0.514 | 0.476 | 0.121 | 0.634 | 0.633 | 0.524 | 0.754 | – | – | – | –
NCI-H2228 | 0.697 | 0.984 | 0.656 | 0.888 | 0.351 | – | – | – | – | – | 0.805 | 0.881 | 0.419 | 0.998 | 0.771 | 0.839 | 0.388 | 0.672
NCI-H2342 | – | – | – | – | – | 0.837 | 0.651 | 0.779 | 0.726 | 0.747 | 0.539 | 0.527 | 0.493 | 0.538 | 0.876 | 0.721 | 0.734 | 0.828
SW 900 | – | – | – | – | – | 0.442 | 0.445 | 0.509 | 0.417 | 0.441 | 0.55 | – | 0.59 | 0.655 | 0.457 | – | 0.635 | 0.596
